# Measured values reported in patent US20240083933A1, “DISACCHARIDES FOR TREATING BONE DISEASES” (UNIVERSITE DE PICARDIE JULES VERNE, priority 2020, published 2024).
# Assays:
# MC3T3-E1 cells = assay: Calcium assay (pro-calcifying activity) on mouse pre-osteoblastic cells; format: cell-based; conditions: for production of calcium by the MC3T3-E1 cells (calcium dosage in culture medium): 9 days, 4 mM Pi, 30 μM compound, vs control+Pi (FIG. 1); for increase in calcification relative to the mineralizing medium: MC3T3-E1, 25 days
# Procedure: FIG. 1 represents the calcium dosage in the MC3T3-E1 culture medium (in […] of protein per well) after 9 days of exposure of these cells to 4 mM of Pi ([…]) (control+Pi) and 4 mM of Pi in the presence of 30 μM of each of the compounds referenced DP2SNA, DP2NA, DP2K and DP2S;
# (§1) For all experiments, a mouse pre-osteoblastic cell line (MC3T3-E1, ATCC) and human primary osteoblastic cells (HOb, Promocell) were used. The mouse pre-osteoblastic cells were cultured in 75 cm^2 flasks, containing 15 mL of α-MEM medium (M4526, SIGMA) and 10% fetal calf serum (FCS), containing 1% Penicillin/Streptomycin antibiotics and 1% glutamine. Similarly, human HOb cells were cultured in 75 cm 2 flasks containing 15 mL of proliferation medium (Human Osteoblast Proliferation Medium, PromoCell). The cells are maintained in the oven at 37° C., with 5% CO2 and 90% humidity. The medium was changed every three days.
# (§2) MC3T3-E1 cells were seeded in 6-well plates at 63,700 cells/well to be treated in order to extract RNA or for alkaline phosphatase enzymatic activity assay and in 48-well plates for the calcium assay at 5250 cells/well. The HOb cells were seeded at 182,000 cells/well in 6-well plates for the extraction of RNA or for the alkaline phosphatase enzymatic activity assay; at 15,000 cells/well in 48-well plates for the calcium assay; at 10,000 cells/well in 48-well plates for the MTT test or the WST-1 test and at 100,000 cells/well in 6-well plates for the protein extraction or for the fluorescence.
# (§3) In order to induce the mineralization, the MC3T3-E1 cells were treated with α-MEM medium containing 5% FCS to which 10 mM of β-glycerophosphate and 50 μg/mL of ascorbic acid are added. The HOb cells were treated with the “Osteoblast mineralization medium” (Promocell). […] After filtration, the cells were treated with the respective media (500 μL per well of the 48-well plate and 2 mL per well of the 6-well plate).
# The release of calcium in the culture medium of mouse pre-osteoblastic cells (MC3T3-E1) has been studied.
# An increase in calcification was observed, relative to the mineralizing medium (FIG. 2), in the presence of DP2R0 at 15 μM (40±2%), at 30 μM (28±18%) and at 50 μM (40±28%), and DP2NA at 15 μM (15±14%), at 30 μM (33±12%) and at 50 μM (10±19%).
# [1] = Acetate migration DP2/DP2′ in solution (stability); format: physicochemical; conditions: water, after 44 days
# Procedure: The compound DP2′ was extracted from the DP2-DP2′ mixture which is formed when the compound DP2 is dissolved in water. The compound DP2′ has been separated by preparative HPLC chromatography with water as elution solvent.
# The inventors have observed that when the compound DP2′ was in water, the delocalization of the acetate group was also present, but with very slow kinetics compared to the DP2→DP2′ reaction. Thus, a solution of DP2′ in water which is left to rest contains, after 44 days, 10 to 15% of DP2. The DP2′ therefore remains alone in the water for a given duration which is quite long. It is therefore possible to test the biological effect of DP2′ in solution in water.
# Similarly, the inventors have observed that the kinetics of the DP2→DP2′ reaction is such that it is also possible to test the biological activity of the compound DP2 alone after extraction of the formed compound DP2′. Thus, the two compounds DP2 and DP2′ can coexist or not in water for a given duration.
# In methanol, for example, the compound DP2 is therefore alone.
# There is about ⅔ of DP2R2 for ⅓ of DP2′. The compound DP2′ comes from a migration of the acetate group (R2) on the 30H position. The compound DP2′ could be isolated and synthesized as previously indicated. […]
# HOb cells = assay: Calcium assay (pro-calcifying activity, mineralization) on human primary osteoblastic cells; format: cell-based; conditions: for increase in calcification relative to the mineralizing condition: HOb
# Procedure: as §1, §2, §3
# The calcification has also been studied on human osteoblastic cells (Hob, PromoCell, Heidelberg, Germany). They are isolated from femoral trabecular bone tissues.
smiles,measurement,setting,value
"CCCO[C@H]1OC(COS(=O)(=O)[O-])[C@@H](O[C@@H]2OC(CO)[C@@H](O)C(O)C2NC(C)=O)C(O)C1O.[Na+] (stereo partly drawn) [DP2SNA, n-propyl, 6-O-sulfo-α-D-Glucopyranoside, 4-O-(2-acetamido-2-desoxy-β-D-glucopyranosyl), monosodium salt]",production of calcium by the MC3T3-E1 cells (calcium dosage in culture medium),MC3T3-E1 cells,increase the production of calcium
"CCCOC1OC(CO)C(OC2OC(CO)C(O)C(O)C2NC(C)=O)C(OC(C)=O)C1O [DP2′, n-propyl, 3-0-acetyl-α-D-Glucopyranoside, 4-O-(2-acetamido-2-deoxy-β-D-glucopyranosyl)]",DP2 content of a solution of DP2′ in water left to rest,[1],10 to 15%
same,percentage of mineralization of the HOb cells,"HOb cells; 14 days, mineralizing conditions, 30 μM",143.806±36.657%
"CCCO[C@H]1OC(CO)[C@@H](O[C@@H]2OC(CO)[C@@H](O)C(O)C2NC(C)=O)C(O)C1O (stereo partly drawn) [DP2NA, n-propyl, α-D-Glucopyranoside, 4-O-(2-acetamido-2-deoxy-β-D-glucopyranosyl)]",production of calcium by the MC3T3-E1 cells (calcium dosage in culture medium),MC3T3-E1 cells,increase the production of calcium
same,increase in calcification relative to the mineralizing medium,MC3T3-E1 cells; 15 μM,15±14%
same,increase in calcification relative to the mineralizing medium,MC3T3-E1 cells; 30 μM,33±12%
same,increase in calcification relative to the mineralizing medium,MC3T3-E1 cells; 50 μM,10±19%
same,increase in calcification relative to the mineralizing condition,"HOb cells; 14 days, 15 μM",45±42%
same,increase in calcification relative to the mineralizing condition,"HOb cells; 14 days, 30 μM",44±7%
same,increase in calcification relative to the mineralizing condition,"HOb cells; 14 days, 50 μM",35±8%
same,mineralization of the HOb cells relative to the mineralizing medium alone,"HOb cells; lower concentrations 5, 7.5 and 10 μM (FIG. 4)",decrease in mineralization
"CCCO[C@H]1O[C@H](COS(=O)(=O)[O-])[C@@H](O[C@@H]2O[C@H](CO)[C@@H](O)[C@H](O)[C@H]2NC(C)=O)[C@H](O)[C@H]1OC(C)=O.[Na+] [DP2S, n-propyl, 2-0-acetyl-6-O-sulfo-α-D-Glucopyranoside, 4-O-(2-acetamido-2-desoxy-β-D-glucopyranosyl), monosodium salt]",production of calcium by the MC3T3-E1 cells (calcium dosage in culture medium),MC3T3-E1 cells,significantly inhibits the expression of calcium
